The values that follow come from US9029328B2, “Methods for cardioprotection and cardioregeneration with dimers of EGF family ligands” (The Brigham and Women's Hospital, Inc., priority 2010, dated 2015).

Data set [1] addresses T1, soluble crosslinked HER3 homodimers (ErbB3) (Homo sapiens, UniProt P21860).
T1 construct: exposed to soluble crosslinked HER3 homodimers (ErbB3)
Put plainly: Aggregation of soluble ErbB3 by dynamic light scattering. It is filed as binding. To be noted: various ligand:ErbB3 ratios, n=10. The method, then: FIG. 10. Specific binding of bivalent NN to HER3. Bivalent NN, monovalent NRG
(NC and NN), native NRG, or bivalent EN were exposed to soluble crosslinked HER3 homodimers (ErbB3) and hydrodynamic radius (RH) at various ligand:ErbB3 ratios. Receptor aggregation was determined by dynamic light scattering (n=10).

Data set [2] concerns ErbB2 and ErbB3 receptors in H3255 cells. Nature of the data set: Western blot of pHER2 and pHER3 in H3255 cell lysates. Type of data set: cell-based. The source says:
FIG. 9. Western blot analysis of pHER2 and pHER3 in lysates from H3255 cells stimulated by monovalent NRG (NC) or bivalent NRG (NN) (data representative of 2 independent experiments) (FIG. 9B). A possible mechanism for the observed differences in monovalent NRG compared to bivalent NN, in which NN fosters homodimerization or homo-oligomerization of HER3 at the expense of heterodimers with HER2, is illustrated in the schematic (FIG. 9A).
This hypothesis is further supported by the use of H3255 cells, which express high levels of the ErbB3 receptor and low levels of the ErbB4 receptor. Because the potential phenotypic effects associated with dimerization, oligomerization, and/or aggregation are more apparent with ErbB3 than ErbB4, this setting was chosen for proof-of-concept experiments.

Data set [3] concerns HER3 and HER4 receptors. Nature of the data set: NRG relative affinity for HER3 and HER4 versus HER1. Type of data set: binding. The source says: Accordingly, in the context of cardiomyocytes, receptor signaling bias can be achieved, for example, through use of a ligand with high affinity for HER4/ErbB4. One such ligand is neuregulin-1β (NRG or NRG1, as used herein). To this end, the invention provides an NRG ligand homodimer. This homodimer induces HER4 homodimerization due to the high affinity of NRG for HER4/ErbB4. NRG binds HER3 and HER4 receptors with approximately 5000-fold greater affinity than HER1. ErbB3 is not expressed on cardiomyocytes however so exposure of these cells to an NRG dimer will stimulate the dimerization of HER4 homodimers without interference from HER3 receptors.

For data set [4], the system named is hTERT-immortalized human mesenchymal stem cells (hTMSC). Nature of the data set: ERK phosphorylation in hTMSC, western analysis with densitometry. Type of data set: cell-based. The method, then:
FIG. 4. Cellular responses differ between native and bivalent NRG. (A) hTMSC were exposed to native (rhNRG), monovalent (C3, C4) and bivalent (NN) NRG in culture. ERK phosphorylation was measured via western analysis and quantified by densitometry.
Since NRG has high affinity for ErbB3 as well as ErbB4, and since ErbB3 is kinase-deficient, recruitment of ErbB3 homodimers via bivalent NRG should produce a null signaling outcome, whereas native or monovalent engineered NRG should be capable of stimulating ERK phosphorylation in these cells via ErbB2/ErbB3 mediated signaling.

In data set [5] the test system is Neonatal rat cardiomyocytes (NRCM). Put plainly: Cardiomyocyte viability under doxorubicin, cell titer blue assay. It is filed as cell-based. To be noted: FIGS. 6 and 7; monomers compared with dimers. The method, then: FIG. 5. Bivalent NRG attenuates doxorubicin-induced toxicity to cardiomyocytes in vitro. (A) Neonatal rat cardiomyocytes (NRCM) were simultaneously exposed to doxorubicin (1 μM) and either fibroblast growth factor-1 (FGF1, a known NRCM mitogen), native NRG (NRG), or bivalent NRG (NRG-NRG) at the indicated doses. […] (B) Bivalent NRG may preferentially activate the PI3K/Akt pro-survival signaling pathway.
FIG. 6 is a bar graph showing the effect of NRG monomers and NRG homodimers on cardiomyocyte viability in the presence of doxorubicin.
FIG. 7 is a bar graph showing the effect of NRG monomers, NRG homodimers, EGF-NRG heterodimers, and EGF and NRG monomers on cardiomyocyte viability in the presence of doxorubicin.
The activity of engineered ErbB receptor ligands has been verified in multiple cell systems. ErbB receptor profiles in cardiomyocytes are distinct. The efficacy of engineered bivalent ligands has been tested on cardiomyocytes in culture. Specifically, the effects of native and bivalent NRG on cardiomyocytes exposed to DOX-induced cytotoxicity were examined. […] If this effect of bivalent NRG is validated in vivo, it could have significant potential as a new cardioprotective agent against DOX-induced cardiomyopathy.
FIGS. 6 and 7 show similar results.
In general terms: Resazurin is reduced to fluorescent resorufin, in cell work by metabolically active cells.

Data set [6] deals with ErbB4 (Homo sapiens, UniProt Q15303). The following applies: NRG binding to ErbB4, reference [18]; cited from earlier work.
Data set [7] addresses ErbB1 (Homo sapiens, UniProt P00533). To be noted: NRG binding to ErbB1, reference [18]; cited from earlier work.
For data set [8] the following is noted: FDA label; cited from earlier work.
Data set [9] concerns infarcted hearts. To be noted: nanofiber delivery, n=7, from reference [10]; cited from earlier work.
Data set [10] deals with MCF-7 cells. Nature of the data set: ERK phosphorylation in MCF-7 cells (NRG containing ligands). Type of data set: cell-based. The following applies: inhibitor control. The method, then: (§1) FIG. 3. Bioactivity of engineered ligands. Stimulation of ERK phosphorylation by engineered EGF (C1, C2) and NRG (C3, C4) compared to native protein. Inhibition of phosphorylation was accomplished via a pan-ErbB kinase inhibitor N-(4-((3-Chloro-4-fluorophenyl)amino)-pyrido[3,4-d]pyrimidin-6-yl)2-butynamide (i), indicating specificity; FIG. 3A (HeLa), FIG. 3B (MCF-7).
(§2) Proteins are produced using a maltose binding protein (MBP) tagged system (pMAL-c2X, New England Biolabs). Proteins are analyzed by Coomassie staining, immunoblotting, mass spectrometry, absorbance at 280 nm, and in vitro cell response versus wild type ligands EGF and NRG. Specificity for ErbB receptor activation was further assessed by including inhibitor controls using the pan-ErbB kinase inhibitor N-(4-((3-Chloro-4-fluorophenyl)amino)-pyrido[3,4-d]pyrimidin-6-yl)-2-butynamide. Bioactivity and ErbB specificity were validated in HeLa and MCF-7 cells (for EGF and NRG containing ligands, respectively) (FIG. 3). HeLa cells express EGFR and ErbB2 and are responsive to EGF while MCF-7 cells express ErbB3 and ErbB4 and are responsive to NRG.

The test system of data set [11] is HeLa cells. Nature of the data set: ERK phosphorylation in HeLa cells (EGF containing ligands). Type of data set: cell-based. To be noted: inhibitor control. The method, then: as §1, §2

The term Kd denotes the concentration at which binding is half-saturated.

T1 sequence (P21860 20-643 limits assumed): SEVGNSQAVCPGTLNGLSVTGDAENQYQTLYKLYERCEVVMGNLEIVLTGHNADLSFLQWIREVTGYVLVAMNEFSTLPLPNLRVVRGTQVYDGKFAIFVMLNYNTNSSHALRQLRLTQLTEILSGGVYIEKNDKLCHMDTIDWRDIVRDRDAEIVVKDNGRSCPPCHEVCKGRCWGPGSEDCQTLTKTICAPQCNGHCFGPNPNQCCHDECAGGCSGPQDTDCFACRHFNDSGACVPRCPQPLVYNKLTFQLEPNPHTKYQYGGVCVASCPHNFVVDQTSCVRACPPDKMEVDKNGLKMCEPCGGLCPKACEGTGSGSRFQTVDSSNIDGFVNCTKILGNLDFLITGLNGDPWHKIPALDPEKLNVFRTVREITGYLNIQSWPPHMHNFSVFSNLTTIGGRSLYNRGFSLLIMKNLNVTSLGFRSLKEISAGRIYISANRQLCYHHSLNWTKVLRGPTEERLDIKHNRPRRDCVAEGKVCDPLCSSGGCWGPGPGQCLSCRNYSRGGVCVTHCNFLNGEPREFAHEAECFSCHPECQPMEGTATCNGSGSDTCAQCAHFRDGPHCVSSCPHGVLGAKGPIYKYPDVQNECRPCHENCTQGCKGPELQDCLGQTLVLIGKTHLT
Chain of ErbB4 (Q15303 26-1308, species assumed): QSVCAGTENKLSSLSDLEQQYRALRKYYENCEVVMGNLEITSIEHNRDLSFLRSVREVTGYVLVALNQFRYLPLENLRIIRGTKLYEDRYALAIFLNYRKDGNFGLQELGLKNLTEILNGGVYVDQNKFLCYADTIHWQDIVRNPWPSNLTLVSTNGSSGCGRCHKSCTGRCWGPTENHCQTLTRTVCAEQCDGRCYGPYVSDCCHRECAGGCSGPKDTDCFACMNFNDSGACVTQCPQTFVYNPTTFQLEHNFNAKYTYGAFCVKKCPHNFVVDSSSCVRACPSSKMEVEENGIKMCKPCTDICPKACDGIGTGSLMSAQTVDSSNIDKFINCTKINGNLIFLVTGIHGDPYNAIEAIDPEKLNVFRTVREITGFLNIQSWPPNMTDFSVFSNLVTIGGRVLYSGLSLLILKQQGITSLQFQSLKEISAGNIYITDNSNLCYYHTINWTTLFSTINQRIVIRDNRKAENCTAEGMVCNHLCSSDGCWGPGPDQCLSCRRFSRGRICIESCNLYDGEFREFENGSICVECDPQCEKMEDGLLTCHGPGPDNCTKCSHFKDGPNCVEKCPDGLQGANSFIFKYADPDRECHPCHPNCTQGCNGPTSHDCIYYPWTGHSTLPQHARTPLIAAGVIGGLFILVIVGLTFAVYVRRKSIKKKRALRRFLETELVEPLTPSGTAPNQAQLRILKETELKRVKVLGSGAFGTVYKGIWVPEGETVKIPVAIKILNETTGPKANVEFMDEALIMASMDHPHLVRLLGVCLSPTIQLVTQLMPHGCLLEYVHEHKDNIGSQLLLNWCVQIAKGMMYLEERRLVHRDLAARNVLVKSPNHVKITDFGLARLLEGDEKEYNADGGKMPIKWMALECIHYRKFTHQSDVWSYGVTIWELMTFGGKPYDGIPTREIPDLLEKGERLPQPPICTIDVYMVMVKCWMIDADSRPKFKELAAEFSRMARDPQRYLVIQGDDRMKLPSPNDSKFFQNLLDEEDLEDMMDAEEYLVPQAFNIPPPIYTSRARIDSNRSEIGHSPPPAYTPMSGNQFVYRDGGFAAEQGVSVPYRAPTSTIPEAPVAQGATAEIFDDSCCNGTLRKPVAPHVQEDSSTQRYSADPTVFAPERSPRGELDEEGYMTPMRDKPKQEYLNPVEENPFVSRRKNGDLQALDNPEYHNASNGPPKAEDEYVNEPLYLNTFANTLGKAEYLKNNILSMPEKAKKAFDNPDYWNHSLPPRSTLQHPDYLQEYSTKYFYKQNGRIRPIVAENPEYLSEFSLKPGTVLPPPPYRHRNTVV

In the case of “NC: Monovalent NRG used as comparator to bivalent NN”, the “aggregation of soluble ErbB3 receptors (hydrodynamic radius)” value in data set [1] is recorded as “Only bivalent NN induced aggregation”. The “phosphorylation of ErbB2 and ErbB3 receptors” value in [2] was “stimulates phosphorylation”.
For neuregulin-1β [native NRG], the “aggregation of soluble ErbB3 receptors (hydrodynamic radius)” value in data set [1] is “Only bivalent NN induced aggregation”. For the same molecule, the “greater affinity for HER3 and HER4 than HER1” value in [3] is recorded as “approximately 5000 fold”. Further, in data set [4], the “ERK phosphorylation (pERK response)” value is listed as “dose-dependent increase in ERK phosphorylation”. In addition, the “cardiomyocyte viability in the presence of doxorubicin” value in data set [5] is “significantly (p<0.05) decreased”. Also, the Kd is about 0.7 nM in data set [6] and about 5550 nM in data set [7].
For the molecule `COc1cccc2c1C(=O)c1c(O)c3c(c(O)c1C2=O)C[C@@](O)(C(=O)CO)C[C@@H]3O[C@H]1C[C@H](N)[C@H](O)[C@H](C)O1` [doxorubicin], in data set [8], the “cumulative dose at which risk of developing impaired myocardial function increases” value was “about 300 mg/m^2”.
As for “SDF-1(S4V): Protease resistant form of SDF-1, delivered via self-assembling peptide nanofibers”, the “capillary density (isolectin-positive staining)” value in [9] was “increased capillary density”.
For the molecule `CC#CC(=O)Nc1cc2c(Nc3ccc(F)c(Cl)c3)ncnc2cn1` [N-(4-((3-Chloro-4-fluorophenyl)amino)-pyrido[3,4-d]pyrimidin-6-yl)-2-butynamide], the “inhibition of ligand-induced pERK activation” value in data set [10] and in [11] was “specifically inhibited” in each case.
